# Test results published in US20250382273A1 (INSTITUT NATIONAL DE LA SANTE ET DE LA RECHERCHE MEDICALE, priority 2022, published 2025).
# Tested on: M. tuberculosis H37Rv_DdnL49P_gfp
# Type: cell-based, Mycobacterium tuberculosis
# Settings: read-out: EC50 H37Rv_DdnL49P_gfp
row,Compound,EC50
1,"O=C(Nc1nc2ccc(-c3ccc4ncccc4c3)cc2s1)[C@@H]1C2C=CC(C2)[C@@H]1C(=O)O (stereo partly shown) [Example 81, 3-[[6-(6-quinolyl)-1,3-benzothiazol-2-yl]carbamoyl]bicyclo[2.2.1]hept-5-ene-2-carboxylic acid]",1000 to 5000 nM
2,"Cc1ccnc(Nc2ccc3nc(NC(=O)[C@@H]4C5C=CC(C5)[C@@H]4C(=O)O)sc3c2)c1 (stereo partly shown) [Example 84, 3-[[6-[(4-methyl-2-pyridyl)amino]-1,3-benzothiazol-2-yl]carbamoyl]bicyclo[2.2.1]hept-5-ene-2-carboxylic acid]",1000 to 5000 nM
3,"O=C(Nc1nc2ccc(Nc3cc(F)ccn3)cc2s1)[C@@H]1C2C=CC(C2)[C@@H]1C(=O)O (stereo partly shown) [Example 85, 3-[[6-[(4-fluoro-2-pyridyl)amino]-1,3-benzothiazol-2-yl]carbamoyl]bicyclo[2.2.1]hept-5-ene-2-carboxylic acid]",< 1000 nM
4,"O=C(Nc1nc2ccc(Nc3ccc(F)cn3)cc2s1)[C@@H]1C2C=CC(C2)[C@@H]1C(=O)O (stereo partly shown) [Example 86, 3-[[6-[(5-fluoro-2-pyridyl)amino]-1,3-benzothiazol-2-yl]carbamoyl]bicyclo[2.2.1]hept-5-ene-2-carboxylic acid]",< 1000 nM
5,"O=C1[C@@H]2C3C=CC(C3)[C@@H]2C(=O)N1c1nc2ccc(Nc3ccc(F)cn3)cc2s1 [Example 87, 4-[6-[(5-fluoro-2-pyridyl)amino]-1,3-benzothiazol-2-yl]-4-azatricyclo[5.2.1.02,6]dec-8-ene-3,5-dione]",< 1000 nM
6,"O=C(Nc1nc2ccc(Nc3cccc(F)n3)cc2s1)[C@@H]1C2C=CC(C2)[C@@H]1C(=O)O (stereo partly shown) [Example 88, 3-[[6-[(6-fluoro-2-pyridyl)amino]-1,3-benzothiazol-2-yl]carbamoyl]bicyclo[2.2.1]hept-5-ene-2-carboxylic acid]",< 1000 nM
7,"O=C1[C@@H]2C3C=CC(C3)[C@@H]2C(=O)N1c1nc2ccc(Nc3cccc(F)n3)cc2s1 [Example 89, 4-[6-[(6-fluoro-2-pyridyl)amino]-1,3-benzothiazol-2-yl]-4-azatricyclo[5.2.1.02,6]dec-8-ene-3,5-dione]",1000 to 5000 nM
8,"O=C1[C@@H]2C3C=CC(C3)[C@@H]2C(=O)N1c1nc2ccc(Nc3ccnc(C(F)(F)F)c3)cc2s1 [Example 90, 4-[6-[[2-(trifluoromethyl)-4-pyridyl]amino]-1,3-benzothiazol-2-yl]-4-azatricyclo[5.2.1.02,6]dec-8-ene-3,5-dione]",< 1000 nM
9,"O=C(Nc1nc2ccc(Nc3cncc(C(F)(F)F)c3)cc2s1)[C@@H]1C2C=CC(C2)[C@@H]1C(=O)O (stereo partly shown) [Example 91, 3-[[6-[[5-(trifluoromethyl)-3-pyridyl]amino]-1,3-benzothiazol-2-yl]carbamoyl]bicyclo[2.2.1]hept-5-ene-2-carboxylic acid]",5000 to 10000 nM
10,"COc1cc(Nc2ccc3nc(N4C(=O)[C@@H]5C6C=CC(C6)[C@@H]5C4=O)sc3c2)ccn1 [Example 92, 4-[6-[(2-methoxy-4-pyridyl)amino]-1,3-benzothiazol-2-yl]-4-azatricyclo[5.2.1.02,6]dec-8-ene-3,5-dione]",1000 to 5000 nM
11,"O=C(Nc1nc2ccc(Nc3ccc(OC(F)(F)F)cn3)cc2s1)[C@@H]1C2C=CC(C2)[C@@H]1C(=O)O (stereo partly shown) [Example 93, 3-[[6-[[5-(trifluoromethoxy)-2-pyridyl]amino]-1,3-benzothiazol-2-yl]carbamoyl]bicyclo[2.2.1]hept-5-ene-2-carboxylic acid]",< 1000 nM
12,O=C1[C@@H]2C3C=CC(C3)[C@@H]2C(=O)N1c1nc2ccc(Nc3ccc(C(F)(F)F)cn3)cc2s1 [Example 95],< 1000 nM
13,"O=C(Nc1nc2ccc(Nc3ccc(C(F)(F)F)cn3)cc2s1)[C@@H]1C2C=CC(C2)[C@@H]1C(=O)O (stereo partly shown) [Example 96, 3-[[6-[[5-(trifluoromethyl)-2-pyridyl]amino]-1,3-benzothiazol-2-yl]carbamoyl]bicyclo[2.2.1]hept-5-ene-2-carboxylic acid]",< 1000 nM
14,"O=C1[C@@H]2C3C=CC(C3)[C@@H]2C(=O)N1c1nc2ccc(Nc3cccc(C(F)(F)F)n3)cc2s1 [Example 97, 4-[6-[[6-(trifluoromethyl)-2-pyridyl]amino]-1,3-benzothiazol-2-yl]-4-azatricyclo[5.2.1.02,6]dec-8-ene-3,5-dione]",< 1000 nM
15,"O=C(Nc1nc2ccc(Nc3ccnc(F)c3)cc2s1)[C@@H]1C2C=CC(C2)[C@@H]1C(=O)O (stereo partly shown) [Example 99, 3-[[6-[(2-fluoro-4-pyridyl)amino]-1,3-benzothiazol-2-yl]carbamoyl]bicyclo[2.2.1]hept-5-ene-2-carboxylic acid]",1000 to 5000 nM
16,O=C(Nc1nc2ccc(-c3ccc(N4CCCCC4)cc3)cc2s1)[C@@H]1C2C=CC(C2)[C@@H]1C(=O)O (stereo partly shown) [Example 100],< 1000 nM
